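These data come from cells grown in 96-well plates and exposed to compound for 48 hours at five concentrations. GI50 marks 50% less growth.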 Activity calls are given as the source filed them. Rule as the data show it: active = GI50 up to about 1.1 µM and inactive = higher.

The results in this text go back to ChEMBL document CHEMBL1201862, “PubChem BioAssay data set” (2004).

Among the test systems are SNB-19; COLO 205; U-251; Malme-3M; SR; SF-539; ACHN; DU-145; MCF7; RPMI-8226; MDA-MB-231; UACC-257; SNB-75; NCI-H226; SK-MEL-5; IGROV-1; K562; SK-MEL-28; SN12C.
Common to all, as to experiment: DTP human tumour cell line panel, 48 h

Regarding `CC[C@@]1(O)C(=O)OCc2c1cc1n(c2=O)Cc2c-1nc1ccccc1c2/C=N\NC(=O)C(N)CS` (stereo not given in full), the GI50 (in general, the concentration giving 50% growth inhibition) with SNB-19 is 0.571 µM (active); in the experiment on COLO 205 it was 41.4 µM (inactive); in the experiment on U-251, 0.281 µM (active); with Malme-3M, 9.59 µM (inactive); in the experiment with SR it was 0.0373 µM (active); in the experiment with SF-539 it was 0.249 µM (active). Moreover, the GI50 in the experiment on ACHN was 0.262 µM (active); with DU-145, 0.435 µM (active); in the experiment with MCF7, 0.206 µM (active); with RPMI-8226, 1.32 µM (inactive); in the experiment with MDA-MB-231 it was 78.9 µM (inactive); in the experiment with UACC-257, 7.26 µM (inactive). Moreover, the GI50 in the experiment with SNB-75 was 0.573 µM (active); in the experiment on NCI-H226, 1.66 µM (inactive); in the experiment with SK-MEL-5 it was 1.13 µM (inactive); with IGROV-1 it was 6.7 µM (inactive); in the experiment on K562 it was 1.5 µM (inactive); in the experiment on SK-MEL-28, 5.5 µM (inactive). For the same compound, the GI50 in the experiment with SN12C is 0.116 µM (active).

As to `C=CCCC(=O)CC(O)(C(F)(F)F)C(F)(F)F`, the GI50 with SNB-19, in the experiment on COLO 205, with U-251, with Malme-3M, in the experiment on SR and in the experiment with SF-539 was > 100 µM (inactive) in each case. For the same compound, the GI50 with ACHN, in the experiment on DU-145, with MCF7, in the experiment on RPMI-8226, in the experiment on MDA-MB-231 and in the experiment on UACC-257 was > 100 µM (inactive) in each case. Moreover, the GI50 in the experiment on SNB-75, with NCI-H226, in the experiment with SK-MEL-5, in the experiment with IGROV-1, in the experiment with K562 and in the experiment with SK-MEL-28 was > 100 µM (inactive) throughout.

In the case of `Cc1ccc(C(=O)c2[nH]c(Nc3cc(C)ccn3)c(C(=S)Nc3ccccc3)c2N)cc1`, the GI50 in the experiment on SNB-19, in the experiment on COLO 205, in the experiment with U-251, with Malme-3M, in the experiment on SR and in the experiment on SF-539 was > 100 µM (inactive) in each case. Also, the GI50 was > 100 µM (inactive) in the experiment with ACHN; > 100 µM (inactive) in the experiment on DU-145; 87.5 µM (inactive) in the experiment with MCF7; > 100 µM (inactive) with MDA-MB-231; > 100 µM (inactive) in the experiment with UACC-257; > 100 µM (inactive) with SNB-75. Moreover, the GI50 with NCI-H226, in the experiment on SK-MEL-5, in the experiment with IGROV-1, in the experiment on K562, in the experiment with SK-MEL-28 and with SN12C was > 100 µM (inactive) each time.

As to `Clc1cc(Br)c2c3c(c(Br)cc(Cl)c13)C(Br)=C2Br`, the GI50 in the experiment with SNB-19 is > 100 µM (inactive); in the experiment on U-251, 43.8 µM (inactive); in the experiment with Malme-3M it was 27.6 µM (inactive); in the experiment on SR, 27.9 µM (inactive); in the experiment on SF-539 it was 19 µM (inactive); in the experiment on ACHN, 19.7 µM (inactive). Also, the GI50 in the experiment on DU-145 was 28.4 µM (inactive); in the experiment on MCF7, 34.8 µM (inactive); in the experiment on RPMI-8226, 21.6 µM (inactive); in the experiment on MDA-MB-231, 28.1 µM (inactive); in the experiment with UACC-257, > 100 µM (inactive); with SNB-75, 13.8 µM (inactive). The GI50 with NCI-H226 is 39.4 µM (inactive); in the experiment on IGROV-1, 16.7 µM (inactive); in the experiment on K562 it was 29 µM (inactive); in the experiment on SK-MEL-28, > 100 µM (inactive); in the experiment on SN12C it was 19.5 µM (inactive).

In the case of `N=c1ccn2c(n1)OC1C(OP(=O)(O)O)C(CO)OC12` (stereo not given), the GI50 with SNB-19 was 25 µM (inactive); with COLO 205, > 70.6 µM (inactive); in the experiment with U-251, > 57.8 µM (inactive); in the experiment with Malme-3M it was > 100 µM (inactive); in the experiment with SR, 3.12 µM (inactive); in the experiment with SF-539, 41.1 µM (inactive). Also, the GI50 in the experiment on ACHN is 1.06 µM (active); with DU-145, 7.31 µM (inactive); in the experiment on MCF7 it was 1.18 µM (inactive); in the experiment on RPMI-8226, > 100 µM (inactive); in the experiment with MDA-MB-231 it was > 100 µM (inactive); in the experiment with UACC-257 it was > 30.2 µM (inactive). Also, the GI50 in the experiment on SNB-75 is > 88.3 µM (inactive); with NCI-H226, > 100 µM (inactive); with SK-MEL-5, 55.1 µM (inactive); with IGROV-1, > 80.7 µM (inactive); with K562, > 80 µM (inactive); in the experiment with SK-MEL-28, > 83.4 µM (inactive). The GI50 with SN12C was 20.2 µM (inactive).

Turning to `CC1OC2/C=C\CC(O)C(C)(C)C3CCC(C)C4(O3)O[B-]35OC(C(=O)OC1C2)C1(OC(CCC1C)C(C)(C)C(O)C/C=C\C1CC(OC(=O)C4O3)C(C)O1)O5` (stereo not given), the GI50 in the experiment on SNB-19 is 2.39 µM (inactive); with COLO 205 it was 2.03 µM (inactive); in the experiment on U-251, 1.33 µM (inactive); in the experiment with Malme-3M, 1.86 µM (inactive); in the experiment on SR, 1.78 µM (inactive); in the experiment on SF-539 it was 2.42 µM (inactive). Besides, the GI50 in the experiment with ACHN was 3.45 µM (inactive); in the experiment on DU-145, 7.96 µM (inactive); with MCF7, 2.01 µM (inactive); with RPMI-8226, 1.63 µM (inactive); in the experiment on MDA-MB-231, 1.99 µM (inactive); in the experiment with UACC-257, 1.77 µM (inactive). In addition, the 50% growth inhibitory concentration (GI50) in the experiment with SNB-75 is 0.39 µM (active); in the experiment with NCI-H226, 0.726 µM (active); in the experiment on SK-MEL-5, 2.21 µM (inactive); in the experiment on IGROV-1, 13.9 µM (inactive); with K562, 7.46 µM (inactive); in the experiment on SK-MEL-28 it was 1.77 µM (inactive). For the same compound, the GI50 in the experiment with SN12C is 2.69 µM (inactive).

Regarding `CC1(C)[C@@H]2C[C@H]1c1cnc(-c3ccccn3)cc1C2[C@@H]1c2cc(-c3ccccn3)ncc2[C@@H]2C[C@H]1C2(C)C` (stereo not given in full), the GI50 in the experiment on SNB-19 was 69.3 µM (inactive); in the experiment on COLO 205, 49.1 µM (inactive); with U-251 it was 36.1 µM (inactive); in the experiment with Malme-3M, 58.9 µM (inactive); in the experiment with SR, 62.8 µM (inactive); in the experiment with ACHN, 40.5 µM (inactive). Also, the GI50 with DU-145 is > 100 µM (inactive); in the experiment on MCF7, 53 µM (inactive); in the experiment with RPMI-8226 it was 31.7 µM (inactive); in the experiment with MDA-MB-231, > 100 µM (inactive); in the experiment on UACC-257, 87.9 µM (inactive); in the experiment on SNB-75, 55.8 µM (inactive). Also, the GI50 in the experiment with NCI-H226 was 28.4 µM (inactive); in the experiment on SK-MEL-5 it was 49.7 µM (inactive); with IGROV-1 it was 25.2 µM (inactive); with K562 it was 22.6 µM (inactive); with SK-MEL-28 it was 88.3 µM (inactive); in the experiment on SN12C it was 97.5 µM (inactive).

In the case of `Cc1ccc(S(=O)(=O)NC(=O)NCCc2c[nH]cn2)cc1`, the GI50 in the experiment on SNB-19, in the experiment on COLO 205, in the experiment on U-251, in the experiment on Malme-3M, with SR and with SF-539 was > 100 µM (inactive) each time. For the same compound, the GI50 in the experiment with ACHN, in the experiment with DU-145, in the experiment on MCF7, in the experiment on RPMI-8226, in the experiment with MDA-MB-231 and in the experiment with SNB-75 was > 100 µM (inactive) each time. The GI50 in the experiment on NCI-H226, in the experiment with SK-MEL-5, in the experiment on IGROV-1, with K562 and in the experiment on SK-MEL-28 was > 100 µM (inactive) each time.
